# Test results: patent US9101566B2, “Fermentation product of cereal plant-derived material and immunomodulator” (KIRIN HOLDINGS KABUSHIKI KAISHA, priority 2009, dated 2015)
# Assays:
# [1] = Solubility in solvent; type: physicochemical
# [2] = tested on: dendritic cells induced from C57BL/6 mouse bone marrow cells with Flt-3L (mDCs, CD11c+CD11b+); experiment: Regulatory DC-inducing activity of 14-dehydroergosterol (Example 9); type: cell-based
# Procedure: Regulatory DC induction activity was evaluated for 14-dehydroergosterol (14-DHE) isolated and purified from wheat bran fermented with koji as described above and subjected to structural determination. As controls, ergosterol (Wako Pure Chemical Industries, Japan) and 9(11)-dehydroergosterol (9(11)-DHE) (Sigma-Aldrich Corp.), which are ergosterol-related substances, were used. Also, as conjugated linoleic acid (CLA) that was reported in connection with the inhibition of DC activation in the past, CLA (9Z, 11E) and CLA (10E, 12Z) (both, Cayman Chemical), and linoleic acid (Wako Pure Chemical Industries, Japan) were also subjected to activity determination (J. Immunol., 175(8): 4990-8, Oct. 15, 2005). As negative controls, a sample (none) to which no compound had been administered and a sample (ctrl) to which only LPS had been administered were also subjected to activity determination.
# In a manner similar to Example 2, bone marrow cells were prepared from C57BL/6 mouse thigh bone, and then dendritic cells were induced using Flt-3L. Each test substance was added simultaneously with the initiation of culture at a concentration of 1 μM, 5 μM, or 10 μM. Seven days later, LPS (from Salmonella typhosa) (Sigma-Aldrich Corp.) was added at 5 ng/mL and then 24 hours later the cells were recovered. Subsequently, the cells were stained for the following cell markers and then subjected to flow cytometry analysis. All antibodies used were produced by Becton, Dickinson and Company. CD11c^+CD11b^+ was set as a gate for mDCs and then the expression levels of CD40, CD80, CD86, I-A/I-E, and ICOS-L were measured. Also, IL-12p40 and IL-10 in culture supernatants were measured by ELISA.
# [3] = tested on: naive CD4+ T cells from BALB/c mouse spleen; experiment: Regulatory T-cell-inducing effect of 14-DHE on CD4+ naive T cells (Example 13); type: cell-based
# Procedure: Naive CD4^+ T cells were isolated from BALB/c mouse spleen-derived cells using the CD4^+CD62L^+ T cell isolation kit II (mouse) (Miltenyi Biotec). CD4^+ T cells were seeded at a density of 5×10^5 cells/mL to 48-well plates (2.5×10^5 cells per well), and then 1 μg/mL anti-CD3 antibody and 0.2 μg/mL anti-CD28 antibody were added. At this time, 2 types of media (i.e., media with and without TGF-β) were used. 14-DHE was added at a concentration of 0, 50, 100, 500, and 1000 nM. Five days later, cells were recovered. The proportion of CD25^+FoxP3^+ cells in CD4^+ T cells was determined using a flow cytometer. Prior to flow cytometry, cell surface staining was performed using CD4-APC, CD25-FITC and CD3e-PerCP, cell membrane permeabilization treatment was performed using the FoxP3 staining buffer set (eBioscience), and then FoxP3-PE staining was performed.
# [4] = tested on: DCs induced from C57BL/6 mouse bone marrow cells; experiment: Timing and duration of the DC-activation-suppressing effect of 14-DHE (Example 14); type: cell-based
# Procedure: In a manner similar to those of the Examples above, C57BL/6 mouse bone marrow cells were prepared and then DCs were induced using Flt-3. The concentration of the added 14-DHE was 3 μM in all cases. The drug residence time in the culture system was controlled by medium exchange. Inflammation was induced using 5 ng/mL LPS, and then the expression level of CD86 was measured using a flow cytometer, so that the characteristics of regulatory DCs were determined. At this time, the cells that had been treated with LPS and without 14-DHE were used as control cells. The median fluorescence intensity (Median Fluorescence Intensity: MFI) of CD86 in the cells treated with 14-DHE was divided by MFI of untreated cells. The determined values indicate: 1 or more, no effect (score: −); 0.7-0.99, weak effect (score: +); 0.4-0.69, moderate effect (score: ++); and 0.4 or less, strong effect (score: +++).
# [5] = tested on: multiple sclerosis model mouse (Experimental Autoimmune Encephalomyelitic; EAE); experiment: Multiple sclerosis model mouse (EAE): disease score (Example 15); type: in vivo; conditions: 10 μg/animal i.p. once a day, days 7 to 18; vs vehicle group
# Procedure: Eight-week-old female C57BL/6 mice were divided into the following 2 groups at 5 mice per group:
# (2) 14-DHE Group (10 μg/Animal)
# (§1) On day 0, the 35-55 peptide (MOG35-55, Operon), a glycoprotein of myelin oligodendroglial cells, as an antigen was mixed with complete Freund's adjuvant (CFA, Difco) and then the mixture was subcutaneously administered at a dose of 200 μg/animal. Subsequently, pertussis toxin (Wako Pure Chemical Industries, Japan) was intraperitoneally administered at a dose of 200 ng/animal on day 1 and day 3, thereby inducing the onset of multiple sclerosis. During days 7 to 18, 14-DHE was intraperitoneally administered at a dose of 10 μg/animal once a day. To the vehicle group, the following solvent for 14-DHE was administered: 10% ethanol (Wako Pure Chemical Industries, Japan)/10% Cremophor (Wako Pure Chemical Industries, Japan)/80% PBS (Takara, Japan).
# During the experimental period (i.e., during days 0 to 20), disease score was determined based on the following criteria:
# Score 1: Unable to freely move tail
# Score 2: Unable to normally walk
# Score 3: Paralysis of one hindlimb
# Score 4: Paralysis of both hindlimbs
# Score 5: Paralysis of forelimbs and hindlimbs
# [6] = tested on: regional lymph node cells and spleen cells of EAE mice; experiment: EAE model, day 11 autopsy: inflammatory cytokines produced by lymph node and spleen cells (ELISA); type: in vivo, mouse
# Procedure: as §1
# Mice were autopsied on day 11 (when inflammation was thought to take place in vivo) to obtain biochemical data.
# (1) Spleen cells were prepared and then cultured for 7 days with or without re-stimulation with 2 μM MOG. Culture supernatants were recovered. The amounts of produced IFN-γ and TNF-α were measured by ELISA.
# [7] = 1, 5 or 10 μM, LPS 5 ng/mL 24 h
# [8] = 1, 5 or 10 μM, LPS 5 ng/mL, culture supernatant
# [9] = re-stimulation with MOG antigen
compound,measurement,setting,value
"CC(C)[C@@H](C)/C=C/[C@@H](C)[C@H]1CC=C2C3=CC=C4C[C@@H](O)CC[C@]4(C)[C@H]3CC[C@@]21C [Sample 14-DHE, ergosta-5,7,14,22-tetraen-3β-ol]",Solubility in solvent: chloroform,[1]; chloroform,readily soluble
same,Solubility in solvent: ethanol,[1]; ethanol,hardly soluble
same,Solubility in solvent: water,[1]; water,insoluble
same,expression level of CD40,[2]; [7],significantly decreased
same,expression level of CD80,[2]; [7],significantly decreased
same,expression level of CD86,[2]; [7],significantly decreased
same,expression level of ICOS-L marker,[2]; [7],remained almost unchanged
same,expression level of MHC class II molecule I-A/I-E,[2]; [7],significantly decreased
same,expression of anti-inflammatory cytokine IL-10 (ELISA),[2]; [8],slightly increased
same,expression of inflammatory cytokine IL-12p40 (ELISA),[2]; [8],drastically decreased
same,effective concentration on DCs,[2]; DCs,1 µM
same,effective concentration on T cells lower compared with that of DCs,[3]; T cells vs DCs (1 μM),≥ 20 times
same,proportion of CD25+FoxP3+ cells in CD4+ T cells,"[3]; absence of TGF-β, 14-DHE 50-1000 nM, 5 days",no change
same,increase in proportion of CD25+FoxP3+ cells compared with no 14-DHE,"[3]; presence of TGF-β, 14-DHE 50 nM (lowest concentration), 5 days",≥ 5 times
same,duration of the effect,[4]; 14-DHE 3 μM,72 h
same,DC activation (CD86)-suppressing effect,[4]; 14-DHE 3 μM added for 5 or 6 days from initiation of differentiation,the degree of the effect significantly decreased
same,DC activation (CD86)-suppressing effect,"[4]; 14-DHE 3 μM added for 7 days starting from initiation of DC differentiation, LPS 5 ng/mL",strong effect
same,DC activation (CD86)-suppressing effect,[4]; 14-DHE 3 μM addition begun on day 7 when DC differentiation was completed,strong effect
same,DC activation (CD86)-suppressing effect,[4]; 14-DHE absent at the time of adding LPS,decrease in the effect was observed
same,time within which the effect significantly decreased,[4]; addition begun on day 0 or on day 7,≤ 72 h
same,time required for 14-DHE to exhibit its effect,[4]; addition from initiation of DC differentiation,≥ 7 days
same,accumulated disease score,[5],decreases were confirmed
same,incidence,[5],decreases were confirmed
same,maximum score,[5],decreases were confirmed
same,onset,[5],delayed onset
same,IFN-γ production from regional lymph node cells,[6]; not re-stimulated with MOG antigen,significantly decrease
same,TNF-α production from spleen cells,[6]; re-stimulated with MOG antigen,decreased
same,IFN-γ production from regional lymph node cells,[6]; [9],decreasing trend
same,IFN-γ production from spleen cells,[6]; [9],decreasing trend
same,TNF-α production from regional lymph node cells,[6]; with or without re-stimulation with MOG antigen,significantly decreased
